Experimental data taken from a melting point compilation (Tetko et al.; mined from patent text by program, amines drawn as free bases though some values may be those of a salt).

| SMILES | melting point [°C] |
| --- | --- |
| COC(=O)c1cc(C(=O)NCCN2CCOCC2)cc(-n2cccc2)c1 | 144 to 146 |
| Cc1cc(Nc2c3ccccc3nc3ccccc23)ccc1N | 256 to 257 |
| CNC(=O)c1nn(-c2ccccc2)c(O)c1N=Nc1ccc(S(=O)(=O)NCCCCCCBr)cc1 | 234 to 236 |
| CC(C)(C)NS(=O)(=O)c1ccccc1-c1ccc(NC(=O)C(C)(C)Nc2cccc(C#N)c2)cc1 | 190 to 193 |
| C=C(C)c1ccncc1-c1c(O)cc(C(C)C(C)CCCCC)cc1O (stereo not drawn) | 128 to 129 |
| COC(=O)Cn1c(=S)sc2ccccc21 | 127 to 128 |
| CCc1cccc(C)c1CNc1nc(OCCOC)cc(NC)c1[N+](=O)[O-] | 135 to 136 |
| O=C(CN1CCN(c2cnccn2)CC1)N1CC=C(c2ccc(Cl)cc2)CC1 | 139 to 141 |
| CCCCCCCCCCCCCCC(=O)c1ccc2cc(O)c(O)cc2c1 | 133 to 134 |
| O=C(O)c1c2c(nc3ccc(F)cc13)-c1ccc(-c3ccc(F)cc3)cc1CC2 | > 300 |
| O=c1c(-c2ccccc2)c(Cn2cnc3c(Cl)ncnc32)oc2ccc(Br)cc12 | 234 to 236 |
| CCOC(=O)c1ccc(C=C(C)c2ccc3c(c2)OCCC3(C)C)cc1 | 48 to 50 |
| COc1cc2nc3ccc(SC)cc3sc-2cc1=O | 222 to 224 |
| CC1(C)Oc2ccc(C#N)cc2[C@@H](N2CCCCC2=O)[C@@H]1O (relative stereo) | 155 |
| CC(C)(C)c1cc(Nc2cccc(OCC(=O)O)c2)cc(C(C)(C)C)c1O | 127 to 128 |
| CS(=O)(=O)c1ccc(-c2cnn(C3CCc4ccccc43)c(=O)c2-c2ccc(F)cc2)cc1 (stereo not drawn) | 128 to 130 |
| CCOC(=O)c1c(C)nc2c(cnn2CCC(C)CC)c1N (stereo not drawn) | 217 to 222 |
| Cc1ccnc(NC(=O)Nc2cccc3c2C2CCCCN2C3=O)c1 (stereo not drawn) | 178 to 180 |
| O=C(O)CCC1CCCC2CCC(=O)NC12 (stereo not drawn) | 95 to 97 |
| COC(=O)N1CCC(C(C#N)(c2ccccc2)c2ccccc2)C1 (stereo not drawn) | 133 to 135 |
| Cn1ncnc1-c1oc2cccc(OCCc3ccc(F)cc3)c2c(=O)c1O | 215 to 217 |
| COC1(c2ccc3ccccc3c2)OOC12C1CC3CC(C1)CC2C3 (stereo not drawn) | 116 |
| COc1cccc(NC(=O)NCC(=O)N(CC(=O)N2CCCC(C)(C)C2)c2ccccc2)c1 | 200 |
| CCOC(=O)c1ncn2c1C1C=CCN1C(=O)c1c(F)cccc1-2 (stereo not drawn) | 200 to 201 |
| CC(=O)OCC(=O)C12OCOC1CC1C3CCC4=CC(=O)CCC4(C)C3(F)C(O)CC12C (stereo not drawn) | 264 to 266 |

| SMILES | melting point [°C] |
| --- | --- |
| CC(=O)Nc1nc(N2CCc3ccccc3CC2)c([N+](=O)[O-])c(=O)[nH]1 | > 200 |
| CNCC[C@H](O)c1cccs1 | 68 to 70 |
| CC1(C)Oc2ccc(OCc3ccccc3)cc2C(O)C1Br (stereo not drawn) | 126 to 128 |
| N#Cc1cnc2sc(C#Cc3ccccn3)cc2c1Nc1ccc2[nH]ccc2c1 | > 260 |
| Cc1nc2cc(-c3ccc(C=C4SC(=O)NC4=O)cn3)cc(C3CCCCC3)c2o1 | 314 to 316 |
| N#Cc1cnn2c1N(C(=O)CCl)CC=C2c1cccc(Cl)c1 | 196 to 198 |
| COc1ccc2c(c1)CCC1=C2CCC(=O)N1 | 203 to 204 |
| COc1ccc2c(c1)N(CCCN1CCC(CCO)CC1)c1cccc(S(C)(=O)=O)c1S2 | 117 to 118 |
| CCCCn1c(CC)ccc1Cc1cccc(NC(N)=O)c1 | 103 to 106 |
| COc1ccc(C(=O)C(CCC(C)=O)c2ccc(OC)cc2)cc1 (stereo not drawn) | 62 to 65 |
| CCCCC(CC)C(=O)Nc1ccc(Oc2ccccc2)c2c(=O)c3ccccc3n(C)c12 (stereo not drawn) | 154 to 156 |
| O=C(c1ccccc1)c1cnc2c(-c3cc(-c4ccccc4)cs3)cnn2c1O | 277 to 290 |
| CCOc1ccc2[nH]c(S(=O)Cc3cccn4ccnc34)nc2c1 (stereo not drawn) | 186 to 188 |
| C=C[C@@H](C[C@H](O)[C@H](CC1CCCCC1)NC(=O)[C@H](Cc1c[nH]cn1)NC(=O)[C@@H](CC(=O)N1CCC(C(=O)O)CC1)Cc1ccccc1)C(C)C | 169 |
| CCCCCCCc1ccc(C(=O)CCCCC(=O)O)cc1N | 100 to 102 |
| CC(Cn1cncn1)(O[Si](C)(C)C)c1ccc(F)cc1F (stereo not drawn) | 51 to 53 |
| NNC(=O)c1ccccc1-c1ccc(N)cc1 | 135 to 137 |
| O=c1[nH]c2scc(-c3ccccc3)c2[nH]c1=O | > 300 |
| CC(C)=CCNC(=N)N[N+](=O)[O-] | 134 to 136 |
| COC(=O)c1ccccc1NS(=O)(=O)c1ccc(C(=O)NCCc2ccccc2)cc1 | 167 to 168 |
| COC(=O)CCCCCCCCCCCCCCCCCCCCC(=O)c1c(C)cc(OC)c(OC)c1O | 72 to 72.5 |
| NC(=O)c1cc2ccccc2nc1N | 240 to 242 |
| COCC(=O)C1CCC2C3CCC4CC(O)CCC4(C)C3CCC12C (stereo not drawn) | 163 to 164 |
| O=C(O)C1CCN(c2ccc3nc4[nH]c(=O)[nH]c4cc3c2)CC1 | > 310 |
| COc1cc(COC(=O)NC2Cc3ccccc3C2)ccc1OC(C)=O | 114 to 116 |

| SMILES | melting point [°C] |
| --- | --- |
| Cc1nc(-n2ccc(O)cc2=O)sc1C(=O)NCc1cccnc1 | 238 to 240 |
| O=C1CC[C@H]2N1CCN1C(=O)C[C@H]3CCCC[C@@]321 (relative stereo) | 135 to 136 |
| NC(=O)c1ccc(COc2cccc3c2CN(C2CCC(=O)NC2=O)C3=O)cc1 (stereo not drawn) | 278 to 280 |
| CC(C)(C)c1cc(C(=O)Nc2cc(Cl)c(Cl)cc2NC(=O)NC23CC4CC(CC(C4)C2)C3)cc(C(C)(C)C)c1O | 203 to 207 |
| Cc1oc(-c2ccco2)nc1COc1ccc(COc2nn(Cc3ccccc3)cc2C(=O)O)cc1OCc1ccccc1 | 184 to 185 |
| Cn1ncnc1COc1nn2c(-c3cnccn3)nnc2cc1-c1ccccc1 | 264 |
| CCC1C(=O)N2C(C(=O)OCc3ccc([N+](=O)[O-])cc3)=C(CCNC(C)=O)CC12 (stereo not drawn) | 174 to 176 |
| Cc1ccccc1C(=O)c1ccccc1C | 66 to 67 |
| CC(C)NCC(O)COc1ccccc1C1=NNC(=O)CC1 (stereo not drawn) | 124 to 126 |
| O=C(c1ccccc1)c1ccc(OCCCCNS(=O)(=O)c2ccc(Br)cc2)cc1 | 71 to 73 |
| C=CCc1c(C=O)cccc1OCc1ccccc1 | 66 to 67 |
| C=CC1(C=CC)OC(=O)N(c2cc(Cl)cc(Cl)c2)C1=O (stereo not drawn) | 141 |
| COc1ccc2c(c1)CN(C)C(=O)C2c1cc(Cl)cc(Cl)c1 (stereo not drawn) | 163 to 165 |
| CCCC1=C(C#N)C(c2ccccc2Cl)c2c(n[nH]c2C(C)(C)C)N1 (stereo not drawn) | > 270 |
| Cc1ccc(CNC(=O)c2ccc(F)cc2OCC(=O)O)cc1[N+](=O)[O-] | 159 to 160 |
| CCCCc1nc2cnc3ccccc3c2n1CCCCSc1ccc(F)cc1F | 122 to 126 |
| CC(C)(C(=O)C(Oc1ccc(Cl)cc1Cl)n1ccnc1)C(Cl)Cl (stereo not drawn) | 125 to 126 |
| O=C1Nc2cccnc2N(C(=O)CCl)c2cc(F)ccc21 | 230 |
| O=C1c2cc(Cl)c(Cl)cc2C(O)N1CCCl (stereo not drawn) | 147 to 149 |
| CCc1cc(C(C)(C)C)c(OP2OCC(C)(C)CO2)c(C(C)(C)C)c1CC(=O)O | 134 to 136 |
| O=C(O)Cc1c(C(=O)c2cccc(Cl)c2)[nH]c2cc(Cl)ccc12 | 199 to 201 |
| CC(=O)Oc1ccc(C(=O)c2nc3ccc(OC(C)=O)cc3s2)cc1 | 183 |
| Cc1cc(C(=O)NC2CC(C)(C)NC(C)(C)C2)c(C)o1 | 116 to 118 |
| CC(CN=C(O)C(Cl)=C(Cl)C(=O)O)Cc1ccc(C(C)(C)C)cc1 (stereo not drawn) | 64 to 65 |
| COc1ccc2c(c1)Sc1ccc(F)cc1C(O)C2 (stereo not drawn) | 74 to 76 |

| SMILES | melting point [°C] |
| --- | --- |
| Nc1ncc(CCC2CCCC2)s1 | 77 to 78 |
| Cc1oc2cc(C3CC(=O)N(C4CC4)C(=O)C3)ccc2c1C | 180 to 182 |
| O=C(O)c1cccc(OCc2ccc(Cl)c(Cl)c2)c1 | 173 to 174 |
| COC(=O)c1cccc2c(-c3ccc(O)cc3)n(C(C)C)nc12 | 195 to 196 |
| O=C(Cc1ccccc1)N[C@@H]1C(=O)N2C[C@@H](O)CS[C@H]12 | 166 to 167 |
| CC(C)Oc1cccc(C(=O)N2CCN(C(=O)CNC3CCN(Cc4ccccc4)CC3)C(c3ccc(Cl)c(Cl)c3)C2)c1 (racemic) | 58 to 61 |
| CN(c1cccc2cc(C3=NCC(CC(=O)O)S3)[nH]c12)S(=O)(=O)c1ccccc1C(F)(F)F (stereo not drawn) | 170 to 172 |
| CC(C)(C)OC(=O)Nc1cc(N2CCOC2=O)c(-c2ccc(F)cc2)cc1N | 210 |
| CC(C)COC(=O)N[C@@H](CC(C)C)C(=O)N[C@@H](C(C)C)[C@@H](O)c1c(-c2ccccc2)c1=O | 145 to 146 |
| COc1cc(COc2nn(-c3ccccc3)cc2/C=C/c2nnc(C)o2)ccc1OCc1nc(-c2ccco2)oc1C | 186 to 187 |
| COC(=O)C1=C(N)NC(C)=C([N+](=O)[O-])C1c1ccccc1S(=O)(=O)CCCCCl (stereo not drawn) | 218 |
| OCCNC(c1ccccc1)c1ccccc1 | 69 to 70 |
| CN1[C@H]2CC[C@@H]1[C@H](C=O)[C@@H](c1ccc(Cl)c(Cl)c1)C2 | 131 to 135 |
| O=c1[nH]c(NCCCNc2ncccc2Cl)ncc1Cc1ccc(Cl)cc1 | 180 to 181 |
| CCCCCCC[C@H]1C(=O)OC[C@H](NC(=O)c2nccc(OC)c2O)C(=O)O[C@@H](C)[C@@H]1OC(=O)C(C)C | 131 to 134 |
| CN1CCN(C2=Nc3cc(Cl)ccc3N3CCc4cccc2c43)CC1 | 154 to 156 |
| COc1ccc(C=C(Cl)Cl)c(C(=O)O)c1 | 164 to 166 |
| O=C1CCC2=C(CCc3cccc(F)c32)N1 | 199 |
| Cc1nc2c(c3c1[nH]c1ccc(F)cc13)C(=O)CC(C(C)C)C2 (stereo not drawn) | 221 to 223 |
| Cc1[nH]c(-c2ccccc2)c(N)c1C(=O)Nc1ccccc1 | 271 to 273 |
| O=C1Nc2c(ccc3ccccc23)SC1=Cc1ccc(Cl)cc1 | 277 to 279 |
| O=C(O)c1cn(-c2ccc(F)cc2F)c2cc(-c3ccncc3)ccc2c1=O | 291 to 292 |
| O=c1ccn(-c2cccc(C(F)(F)F)c2)nc1-n1ccnc1-c1ccccc1 | 204 to 205 |
